Reference: patent publication US9914718B2, “Anhydrous crystalline form of S-equol” (Ausio Pharmaceuticals, LLC, priority 2014, dated 2018)

Assay: Long-term stability testing at room temperature storage conditions
Format: physicochemical
Protocol: Stability testing: To access its ability to maintain a desired chemical integrity, the stability of anhydrous crystalline polymorph of S-equol was evaluated for a period representative of the shelf-life of a pharmaceutical formulation. Anhydrous crystalline polymorph of S-equol was maintained at room temperature storage conditions, and evaluated for purity and water content.

Compound: Oc1ccc([C@H]2COc3cc(O)ccc3C2)cc1 [anhydrous crystalline S-equol, S-equol]
- Appearance (0 days): white to brown
- Purity (0 days): 100% HPLC area %
- Water Content (0 days): <0.1 g/100 g
- Appearance (626 days): white to brown
- Purity (626 days): 100% HPLC area %
- Water Content (626 days): 0.05 g/100 g
- Appearance (867 days): white to brown
- Purity (867 days): 100% HPLC area %
- Water Content (867 days): 0.05 g/100 g
